Reference: US20260091065A1, “VIABLE LYOPHILIZED COMPOSITIONS DERIVED FROM HUMAN TISSUES AND METHODS OF MAKING THE SAME” (OSIRIS THERAPEUTICS, INC., priority 2016, published 2026)

Legend:
[1] = system: epithelial cells in the amniotic membrane; experiment: Uptake of FITC-trehalose by native cells in fresh amniotic membrane; type: cell-based, human; conditions: 2.5 mM FITC-trehalose in 0.5M trehalose, room temperature, 1 hour
Protocol: (§1) To further investigate the protective mechanism that leads to viable lyophilized placental membrane compositions, fresh amniotic and chorionic membranes were incubated in 2.5 mM FITC-trehalose in a 0.5M trehalose solution at room temperature for 1 hour and then thoroughly washed to remove excess trehalose. […] Longer incubation times with higher concentrations of trehalose at an elevated temperature could increase diffusion of trehalose into these cells and may promote enhanced cell survival following lyophilization.

[2] = system: chorionic stromal cells in suspension; experiment: Uptake of FITC-trehalose by chorionic stromal cells in suspension; type: cell-based, human; conditions: 4 hours at room temperature
Protocol: Previous reports of lyophilization of cells in suspension have used trehalose as a lyoprotectant. To confirm that placental cells can uptake trehalose, cells were fully isolated from chorionic membranes and added to a well-plate. To the cell suspension, a commercially available fluorescently tagged trehalose, FITC-trehalose, was added and allowed to incubate for 4 hours at room temperature. Cells were washed multiple times to remove any remaining free FITC-trehalose.

[3] = system: stromal cells in the chorionic membrane; experiment: Uptake of FITC-trehalose by native cells in fresh chorionic membrane; type: cell-based, human; conditions: 2.5 mM FITC-trehalose in 0.5M trehalose, room temperature, 1 hour
Protocol: as §1

[4] = system: chondrocytes embedded in bovine cartilage matrix; experiment: Uptake of FITC-trehalose by chondrocytes embedded in bovine cartilage matrix; type: cell-based; conditions: intact bovine cartilage, 4 hours
Protocol: The same lyophilization methods effective for placental membrane and skin allograft compositions were used for cartilage graft compositions. First, intact pieces of bovine cartilage were incubated with FITC-trehalose for 4 hours and washed thoroughly to remove excess trehalose. […] Intact bovine cartilage, intact bovine cartilage with 1 mm pores, and micronized bovine cartilage were soaked in a trehalose solution for 4 hours at 37 C with agitation prior to lyophilization in the same trehalose solution.

uptake of trehalose [1]: readily uptake trehalose | uptake of trehalose [2]: uptake trehalose at low levels | uptake of trehalose [3]: readily uptake trehalose
Substance: FITC-trehalose
uptake of trehalose [4]: some trehalose can be taken up by chondrocytes
